In patent US6294674A, “Dibenzofuran sulfonamide matrix metalloproteinase inhibitors” (priority 1999, dated 2001):

Legend:
[1] = target: gelatinase A catalytic domain (MMP02); assay: Thiopeptolide assay, gelatinase A catalytic domain (GCD, MMP02); type: biochemical; details: Tables 2, 3, 5, 7; read-out: IC50 MMP-2CD
Method: (§1) Hydrolysis of the thiopeptolide substrate Ac-Pro-Leu-Gly-thioester-Leu-Leu-Gly-OEt (Bachem) is used as the primary screen to determine IC50 values for MMP inhibitors. A 100 μL reaction contains 1 mM 5,5'-dithiobis(2-nitrobenzoic acid) (DTNB), 100 μM substrate, 0.1% Brij, enzyme, and inhibitor in the appropriate reaction buffer. Activated full-length enzymes are assayed at 5 nM, Stromelysin Catalytic Domain (SCD) at 10 nM, and Gelatinase A Catalytic Domain (GaCD) at 1 nM. Inhibitors are screened from 100 μM to 1 nM. Full-length enzymes are assayed in 50 mM HEPES, 10 mM CaCl2, pH 7.0; SCD in 50 mM MES, 10 mM CaCl2, pH 6.0; and GaCD in 50 mM MOPS, 10 mM CaCl2, 10 μM ZnCl2, pH 7.0.

MMP01 = target: T1, MMP01 (Homo sapiens, UniProt P03956); assay: Thiopeptolide assay, MMP01; type: biochemical; details: Tables 2, 3, 5, 7; read-out: IC50 MMP1
T1 construct: purchased Washington University School of Medicine, St. Louis, Mo
T1 sequence (P03956 100-469): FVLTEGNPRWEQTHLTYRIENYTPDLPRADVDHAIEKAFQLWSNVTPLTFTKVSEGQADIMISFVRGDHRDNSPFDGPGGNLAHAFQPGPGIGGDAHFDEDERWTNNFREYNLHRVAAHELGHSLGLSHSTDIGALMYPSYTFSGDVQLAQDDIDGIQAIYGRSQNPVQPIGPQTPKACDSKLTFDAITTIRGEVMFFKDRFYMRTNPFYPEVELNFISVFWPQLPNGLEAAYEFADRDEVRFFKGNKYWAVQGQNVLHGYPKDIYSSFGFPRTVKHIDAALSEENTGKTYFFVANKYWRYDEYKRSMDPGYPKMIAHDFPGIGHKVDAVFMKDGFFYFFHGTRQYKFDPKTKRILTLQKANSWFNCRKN
Method: (§2) MMP01, MMP07, MMP09, and MMP13 activity was assayed in a method similar to MMP02 and MMP03 (SCD and GCD). MMP01 and MMP09 can be obtained from Washington University School of Medicine, St. Louis, Mo. MMP07 can be obtained in accordance with the known procedure set forth by Ye QZ, Johnson L. L., and Baragi V., "Gene Syntheses and Expression in E. coli for PUMP, a Human Matrix Metalloproteinase" Biochem. and Biophys. […] MMP 13 can be obtained in accordance with the known procedure set forth by Freije J. M. P., et al., "Molecular Cloning and Expression of Collegenase-3, a Novel Human Matrix Metalloproteinase Produced by Breast Carcinomas" J. Bio.
as §1

MMP07 = target: T2, MMP07 (Homo sapiens, UniProt P09237); assay: Thiopeptolide assay, MMP07; type: biochemical; details: Tables 2, 3, 5, 7; read-out: IC50 MMP-7
T2 construct: made in house; host or cells: Escherichia coli
T2 sequence (P09237 95-267): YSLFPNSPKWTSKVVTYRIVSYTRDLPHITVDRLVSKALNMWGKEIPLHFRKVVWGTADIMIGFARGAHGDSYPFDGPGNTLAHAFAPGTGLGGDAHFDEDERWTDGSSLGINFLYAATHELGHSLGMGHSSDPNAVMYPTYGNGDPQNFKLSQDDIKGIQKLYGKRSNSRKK
Method: as §2, §1

[2] = target: T3, stromelysin-1 catalytic domain (MMP03) (Homo sapiens, UniProt P08254); assay: Thiopeptolide assay, stromelysin-1 catalytic domain (SCD, MMP03); type: biochemical; details: Tables 2, 3, 5, 7; read-out: IC50 MMP 3CD
T3 construct: SCD (stromelysin-1 catalytic domain); made in house; host or cells: Escherichia coli
Method: as §1

MMP-13CD = assay: Thiopeptolide assay, MMP-13CD; type: biochemical, human; details: Tables 2, 3, 5, 7
Method: IC50 values were determined using a thiopeptolide substrate, Ac-Pro-Leu-Gly-thioester-Leu-Leu-Gly-OEt (Ye Q.-Z., Johnson L. L., Hupe D. J., and Baragi V., "Purification and Characterization of the Human Stromelysin Catalytic Domain Expressed in Escherichia coli," Biochemistry, 1992;31:11231-11235). MMP01, MMP07, MMP09, and MMP13 activity was assayed in a method similar to MMP02 and MMP03 (SCD and GCD). MMP01 and MMP09 can be obtained from Washington University School of Medicine, St. Louis, Mo. MMP07 can be obtained in accordance with the known procedure set forth by Ye QZ, Johnson L. L., and Baragi V., "Gene Syntheses and Expression in E. coli for PUMP, a Human Matrix Metalloproteinase" Biochem. and Biophys. Res. Comm., 1992; 186:143-149. MMP 13 can be obtained in accordance with the known procedure set forth by Freije J. M. P., et al., "Molecular Cloning and Expression of Collegenase-3, a Novel Human Matrix Metalloproteinase Produced by Breast Carcinomas" J. Bio. Chem., 1994;269:16766-6773.
as §1, with “7.0. The change in absorbance at 405 riM is monitored on a ThermoMax microplate reader at room temperature continuously for 20 minutes.” for “7.0.”

T3 sequence (P08254 100-272 limits assumed): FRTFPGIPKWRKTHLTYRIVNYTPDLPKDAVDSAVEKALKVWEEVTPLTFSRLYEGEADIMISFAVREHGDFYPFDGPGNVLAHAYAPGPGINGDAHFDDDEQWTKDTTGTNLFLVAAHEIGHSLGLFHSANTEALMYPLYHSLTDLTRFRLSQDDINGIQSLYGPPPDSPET

## O=C(O)C(CCCCNS(=O)(=O)c1ccc(Br)cc1)NS(=O)(=O)c1ccc2oc3ccccc3c2c1 (stereo not shown) [Example D3, 6-(4-Bromo-benzenesulfonylamino)-2-(dibenzofuran-2-sulfonylamino)-hexanoic acid]
[1]
  IC50: 2.9 µM
MMP01
  IC50: > 100 µM
MMP07
  IC50: > 100 µM
[2]
  IC50: 8.6 µM
MMP-13CD
  IC50: 11.8 µM

## CC(=O)Nc1ccc(S(=O)(=O)NCCCCC(NS(=O)(=O)c2ccc3oc4ccccc4c3c2)C(=O)O)cc1 (stereo not shown) [Example D5, 6-(4-Acetylamino-benzensulfonylamino)-2-(dibenzofuran-2-sulfonylamino)-hexanoic acid]
[1]
  IC50: 1.2 µM
MMP01
  IC50: > 100 µM
MMP07
  IC50: > 100 µM
[2]
  IC50: 8.6 µM
MMP-13CD
  IC50: 7.7 µM

## O=C(O)C(CCCCNS(=O)(=O)c1ccccc1)NS(=O)(=O)c1ccc2oc3ccccc3c2c1 (stereo not shown) [Example D6, 6-Benzenesulfonylamino-2-(dibenzofuran-2-sulfonylamino)-hexanoic acid]
[1]
  IC50: 1.4 µM
MMP01
  IC50: > 100 µM
MMP07
  IC50: 92.1 µM
[2]
  IC50: 2.5 µM
MMP-13CD
  IC50: 3.3 µM

## O=C(O)C(CCCCNS(=O)(=O)c1ccc2ccccc2c1)NS(=O)(=O)c1ccc2oc3ccccc3c2c1 (stereo not shown) [Example D8, 2-(Dibenzofuran-2-sulfonylamino)-6-(naphthalene-2-sulfonylamino)-hexanoic acid]
[1]
  IC50: 7 µM
MMP01
  IC50: > 100 µM
MMP07
  IC50: > 100 µM
[2]
  IC50: 19 µM
MMP-13CD
  IC50: 39 µM

## O=C(O)C(CCCCNS(=O)(=O)c1cccc2ccccc12)NS(=O)(=O)c1ccc2oc3ccccc3c2c1 (stereo not shown) [Example D9, 2-(Dibenzofuran-2-sulfonylamino)-6-(naphthalene-1-sulfonylamino)-hexanoic acid]
[1]
  IC50: 4.3 µM
MMP01
  IC50: > 100 µM
MMP07
  IC50: > 100 µM
[2]
  IC50: 14.2 µM
MMP-13CD
  IC50: 11.7 µM

## O=C(O)C(CCCCNS(=O)(=O)C=Cc1ccccc1)NS(=O)(=O)c1ccc2oc3ccccc3c2c1 (stereo not shown) [Example D10, 2-(Dibenzofuran-2-sulfonylamino)-6-(2-phenyl-ethenesulfonylamino)-hexanoic acid]
[1]
  IC50: 2.5 µM
MMP01
  IC50: > 100 µM
MMP07
  IC50: > 100 µM
[2]
  IC50: 4.2 µM
MMP-13CD
  IC50: 11.1 µM

## O=C(CCC(NS(=O)(=O)c1ccc2oc3ccccc3c2c1)C(=O)O)NCCc1ccncc1 (stereo not shown) [Example F1, 2-(Dibenzofuran-2-sulfonylamino)-4-(2-pyridin-4-yl-ethylcarbamoyl)-butyric acid]
[1]
  IC50: 1.4 µM
MMP01
  IC50: > 100 µM
MMP07
  IC50: 62 µM
[2]
  IC50: 1.9 µM
MMP-13CD
  IC50: 4.1 µM

## CCC(C)CNC(=O)CCC(NS(=O)(=O)c1ccc2oc3ccccc3c2c1)C(=O)O (stereo not shown) [Example F2, 2-(Dibenzofuran-2-sulfonylamino)-4-(2-methyl-butylcarbamoyl)-butyric acid]
[1]
  IC50: 0.9 µM
MMP01
  IC50: > 100 µM
MMP07
  IC50: 26.4 µM
[2]
  IC50: 1.8 µM
MMP-13CD
  IC50: 1.2 µM

## CC(O)CNC(=O)CCC(NS(=O)(=O)c1ccc2oc3ccccc3c2c1)C(=O)O (stereo not shown) [Example F3, 2-(Dibenzofuran-2-sulfonylamino)-4-(2-hydroxy-propylcarbamoyl)-butyric acid]
[1]
  IC50: 3.9 µM
MMP01
  IC50: > 100 µM
MMP07
  IC50: > 100 µM
[2]
  IC50: 8.7 µM
MMP-13CD
  IC50: 24.1 µM

## CCCc1ccc(NC(=O)CCC(NS(=O)(=O)c2ccc3oc4ccccc4c3c2)C(=O)O)cc1 (stereo not shown) [Example F4, 2-(Dibenzofuran-2-sulfonylamino)-4-(4-propyl-phenylcarbamoyl)-butyric acid]
[1]
  IC50: 0.3 µM
MMP01
  IC50: 93.7 µM
MMP07
  IC50: 42.7 µM
[2]
  IC50: 0.6 µM
MMP-13CD
  IC50: 2.2 µM

## O=C(CCC(NS(=O)(=O)c1ccc2oc3ccccc3c2c1)C(=O)O)NCC(c1ccccc1)c1ccccc1 (stereo not shown) [Example F5, 2-(Dibenzofuran-2-sulfonylamino)-4-(2,2-diphenyl-ethylcarbamoyl)-butyric acid]
[1]
  IC50: 0.7 µM
MMP01
  IC50: > 100 µM
MMP07
  IC50: 40.9 µM
[2]
  IC50: 1 µM
MMP-13CD
  IC50: 0.7 µM

## O=C(CCC(NS(=O)(=O)c1ccc2oc3ccccc3c2c1)C(=O)O)NC1CC1 (stereo not shown) [Example F6, 4-Cyclopropylcarbamoyl-2-(dibenzofuran-2-sulfonylamino)-butyric acid]
[1]
  IC50: 0.2 µM
MMP01
  IC50: 68.7 µM
MMP07
  IC50: 14.8 µM
[2]
  IC50: 0.2 µM
MMP-13CD
  IC50: 0.3 µM

## O=C(CCC(NS(=O)(=O)c1ccc2oc3ccccc3c2c1)C(=O)O)NCc1cccs1 (stereo not shown) [Example F7, 2-(Dibenzofuran-2-sulfonylamino)-4-[(thiophen-2-ylmethyl)-carbamoyl]-butyric acid]
[1]
  IC50: 0.3 µM
MMP01
  IC50: 40.9 µM
MMP07
  IC50: 12.3 µM
[2]
  IC50: 0.4 µM
MMP-13CD
  IC50: 0.3 µM

## CC(C)CC(C)NC(=O)CCC(NS(=O)(=O)c1ccc2oc3ccccc3c2c1)C(=O)O (stereo not shown) [Example F8, 2-(Dibenzofuran-2-sulfonylamino)-4-(1,3-dimethyl-butylcarbamoyl)-butyric acid]
[1]
  IC50: 0.1 µM
MMP01
  IC50: 61.3 µM
MMP07
  IC50: 7 µM
[2]
  IC50: 0.4 µM
MMP-13CD
  IC50: 0.2 µM

## CN(C)CCNC(=O)CCC(NS(=O)(=O)c1ccc2oc3ccccc3c2c1)C(=O)O (stereo not shown) [Example F9, 2-(Dibenzofuran-2-sulfonylamino)-4-(2-dimethylamino-ethylcarbamoyl)-butyricacid]
[1]
  IC50: 9.8 µM
MMP01
  IC50: > 100 µM
MMP07
  IC50: > 100 µM
[2]
  IC50: 22.6 µM
MMP-13CD
  IC50: 39.3 µM

## O=C(CCC(NS(=O)(=O)c1ccc2oc3ccccc3c2c1)C(=O)O)NCc1ccccc1 (stereo not shown) [Example F10, 4-Benzylcarbamoyl-2-(dibenzofuran-2-sulfonylamino)-butyric acid]
[1]
  IC50: 2.1 µM
MMP01
  IC50: > 100 µM
MMP07
  IC50: 74.1 µM
[2]
  IC50: 2.7 µM
MMP-13CD
  IC50: 1.9 µM

## O=C(CCC(NS(=O)(=O)c1ccc2oc3ccccc3c2c1)C(=O)O)NCCc1cccs1 (stereo not shown) [Example F11, 2-(Dibenzofuran-2-sulfonylamino)-4-(2-thiophen-2-yl-ethylcarbamoyl)-butyricacid]
[1]
  IC50: 2.1 µM
MMP01
  IC50: > 100 µM
MMP07
  IC50: > 100 µM
[2]
  IC50: 2.7 µM
MMP-13CD
  IC50: 3.6 µM
